# Columns and labels:
# [1] = test system: 60 cancer cell lines; details: NCI 60 cell line data; cited from earlier work
# [2] = test system: SKOV3 cells; test: time-lapse tracking of cell fate, GFP-Histone 2B SKOV3 cells; type: cell-based; details: SKOV3, 20 random cells tracked, 0.5 μM Taxol, FIG. 3a
# Experimental: FIG. 3a is a bar graph showing the percentages of 20 random cells tracked to assess their fate: complete mitosis, death from mitosis, decondensation (uncertain fate) and death from decondensation.
# The data used to construct the chart was obtained by time-lapse movies of cells marked with GFP-Histone 2B. Movies were collected on cell populations treated with two different mp2 stimulus compounds at various concentrations, as well as on DMSO-treated (control) cells, cells treated with 0.5 μM Taxol, and cells treated with compounds that produce a rice phenotype. […] It is believed that most of these cells would eventually die.
compound,measurement,setting,value
"CC(=O)O[C@H]1C(=O)[C@@]2(C)[C@H]([C@H](OC(=O)c3ccccc3)[C@]3(O)C[C@H](OC(=O)[C@H](O)[C@@H](NC(=O)c4ccccc4)c4ccccc4)C(C)=C1C3(C)C)[C@]1(OC(C)=O)CO[C@@H]1C[C@@H]2O [Taxol, paclitaxel]",potency differences between cell types,[1],over 3 orders of magnitude
same,cell fate after treatment,[2],the highest number of cells die directly from mitosis

# — patent publication US20070082327A1, “Cellular phenotype” (Cytokinetics, Inc. A Delaware Corporation, priority 2005, published 2007)
